Reference: patent publication US3933859A, “Dihydrocoumarin derivatives” (Hoffmann-La Roche, Inc., priority 1970, dated 1976)
Counter-ions that a name gives are not always drawn.

Columns and labels:
[1] = test system: noradrenaline; assay: noradrenaline content lowering after oral administration to rats; assay type: in vivo, rat; settings: five separate oral doses each 300 μmol/kg over 48 hours
Experimental: (§1) The novel compounds of formulae VII and VIII and their salts are useful for lowering the blood-pressure and for chemical sympathectomy. Thus, for example, after orally administering five separate doses each comprising 300 μmol/kg of L-6,7-diacetoxy-3-amino-hydrocoumarin hydrochloride to rats over a period of 48 hours, the noradrenaline content is lowered in the heart to 28% and in the brain to 85% of the controls. The LD50 of this hydrochloride amounts to 30-60 mg/kg i.v., 250-500 mg/kg s.c. and 1,000-2,000 mg/kg p.o.

[2] = LD50 of the hydrochloride; settings: in vivo
Experimental: as §1

## CC(=O)Oc1cc2c(cc1OC(C)=O)OC(=O)[C@@H](N)C2 [L-6,7-diacetoxy-3-aminohydrocoumarin hydrochloride]
[1]; brain
  noradrenaline content in the brain, lowered to % of the controls: 85%
[1]; heart
  noradrenaline content in the heart, lowered to % of the controls: 28%
[2]; iv
  LD50: 30 to 60 mg/kg
[2]; po
  LD50: 1000 to 2000 mg/kg
[2]; sc
  LD50: 250 to 500 mg/kg
